Measurements from the supplement of paper PMC10307832.

Columns and labels:
Assay in all cases: relative viability (nuclei count vs DMSO), 5 days (fraction); higher = more cells survive
NCI-H596 = tested on: NCI-H596
Procedure, shortened: (§1)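 After 5 days of treatment, lung cancer cells in 1536-well plates were fixed and stained in a single step (final 0.05% Triton X-100, 1% formaldehyde, 1 ug/ml Hoechst) and their nuclei counted on 4× images. Treatment had been applied by pin tool the day after seeding as one drug alone or as a fixed anchor-drug dose with five library-drug doses (not always all listed) in √10 steps. Relative viability is the nuclei count of treated wells divided by that of vehicle wells, and values are medians of duplicate plates.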

NCI-H727 = tested on: NCI-H727
Procedure, shortened: as §1

NCI-H1792 = tested on: NCI-H1792
Procedure, shortened: as §1

NCI-H2009 = tested on: NCI-H2009
Procedure, shortened: as §1

NCI-H358 = tested on: NCI-H358
Procedure, shortened: as §1

NCI-H2087 = tested on: NCI-H2087
Procedure, shortened: as §1

NCI-H1651 = tested on: NCI-H1651
Procedure, shortened: as §1

NCI-H1355 = tested on: NCI-H1355
Procedure, shortened: as §1

H3255 = tested on: H3255
Procedure, shortened: as §1

SW 1573 = tested on: SW 1573
Procedure, shortened: as §1

NCI-H23 = tested on: NCI-H23
Procedure, shortened: as §1

SK-MES-1 = tested on: SK-MES-1
Procedure, shortened: as §1

NCI-H1666 = tested on: NCI-H1666
Procedure, shortened: as §1

NCI-H1437 = tested on: NCI-H1437
Procedure, shortened: as §1

NCI-H1793 = tested on: NCI-H1793
Procedure, shortened: as §1

PC-14 = tested on: PC-14
Procedure, shortened: as §1

CAL-12T = tested on: CAL-12T
Procedure, shortened: as §1

NCI-H522 = tested on: NCI-H522
Procedure, shortened: as §1

UMC-11 = tested on: UMC-11
Procedure, shortened: as §1

NCI-H2023 = tested on: NCI-H2023
Procedure, shortened: as §1

A-427 = tested on: A-427
Procedure, shortened: as §1

ABC-1 = tested on: ABC-1
Procedure, shortened: as §1

NCI-H838 = tested on: NCI-H838
Procedure, shortened: as §1

With `Oc1nc(-c2ccc(C(F)(F)F)cc2)nc2c1CSCC2` [XAV939] + O=C(c1cc(Cc2n[nH]c(=O)c3ccccc23)ccc1F)N1CCN(C(=O)C2CC2)CC1 [Olaparib] (partner 8 µM) the relative viability (NCI-H596; first compound 0.08 µM) was 0.769, the relative viability (NCI-H596; first compound 0.253 µM) was 0.644 and the relative viability (NCI-H596; first compound 0.8 µM) was 0.776. It also gave a relative viability (NCI-H596; first compound 2.53 µM) of 0.556, a relative viability (NCI-H727; first compound 0.08 µM) of 0.706 and a relative viability (NCI-H727; first compound 0.8 µM) of 0.696. The relative viability (NCI-H727; first compound 2.53 µM) was 0.678, the relative viability (NCI-H1792; first compound 0.08 µM) was 0.602 and the relative viability (NCI-H1792; first compound 0.253 µM) was 0.379. It also gave a relative viability (NCI-H1792; first compound 0.8 µM) of 0.398, a relative viability (NCI-H1792; first compound 2.53 µM) of 0.268 and a relative viability (NCI-H2009; first compound 0.08 µM) of 0.918. It also gave a relative viability (NCI-H2009; first compound 0.253 µM) of 0.728, a relative viability (NCI-H2009; first compound 0.8 µM) of 0.641 and a relative viability (NCI-H2009; first compound 2.53 µM) of 0.754. For the same compound, the relative viability (NCI-H358; first compound 0.08 µM) was 0.615, the relative viability (NCI-H358; first compound 0.253 µM) was 0.5 and the relative viability (NCI-H358; first compound 0.8 µM) was 0.598. It also gave a relative viability (NCI-H358; first compound 2.53 µM) of 0.563, a relative viability (NCI-H2087; first compound 0.08 µM) of 0.625 and a relative viability (NCI-H2087; first compound 0.253 µM) of 0.533. The relative viability (NCI-H2087; first compound 0.8 µM) was 0.665, the relative viability (NCI-H2087; first compound 2.53 µM) was 0.464 and the relative viability (NCI-H1651; first compound 0.08 µM) was 0.181. The relative viability (NCI-H1651; first compound 0.253 µM) was 0.19, the relative viability (NCI-H1651; first compound 0.8 µM) was 0.205 and the relative viability (NCI-H1651; first compound 2.53 µM) was 0.196. For the same compound, the relative viability (NCI-H1355; first compound 0.08 µM) was 0.729, the relative viability (NCI-H1355; first compound 0.253 µM) was 0.617 and the relative viability (NCI-H1355; first compound 0.8 µM) was 0.692. For the same compound, the relative viability (NCI-H1355; first compound 2.53 µM) was 0.487, the relative viability (H3255; first compound 0.08 µM) was 0.598 and the relative viability (H3255; first compound 0.253 µM) was 0.563. For the same compound, the relative viability (H3255; first compound 0.8 µM) was 0.553, the relative viability (H3255; first compound 2.53 µM) was 0.51 and the relative viability (SW 1573; first compound 0.08 µM) was 0.437. For the same compound, the relative viability (SW 1573; first compound 0.253 µM) was 0.499, the relative viability (SW 1573; first compound 0.8 µM) was 0.485 and the relative viability (SW 1573; first compound 2.53 µM) was 0.379. For the same compound, the relative viability (NCI-H23; first compound 0.08 µM) was 0.323, the relative viability (NCI-H23; first compound 0.8 µM) was 0.278 and the relative viability (NCI-H23; first compound 2.53 µM) was 0.264. It also gave a relative viability (SK-MES-1; first compound 0.08 µM) of 0.664, a relative viability (SK-MES-1; first compound 0.253 µM) of 0.605 and a relative viability (SK-MES-1; first compound 0.8 µM) of 0.621. The relative viability (SK-MES-1; first compound 2.53 µM) was 0.465, the relative viability (NCI-H1666; first compound 0.08 µM) was 0.748 and the relative viability (NCI-H1666; first compound 0.253 µM) was 0.741. For the same compound, the relative viability (NCI-H1666; first compound 0.8 µM) was 0.745, the relative viability (NCI-H1666; first compound 2.53 µM) was 0.754 and the relative viability (NCI-H1437; first compound 0.08 µM) was 0.631. The relative viability (NCI-H1437; first compound 0.253 µM) was 0.593, the relative viability (NCI-H1437; first compound 0.8 µM) was 0.558 and the relative viability (NCI-H1437; first compound 2.53 µM) was 0.355. For the same compound, the relative viability (NCI-H1793; first compound 0.08 µM) was 1.15, the relative viability (NCI-H1793; first compound 0.253 µM) was 0.707 and the relative viability (NCI-H1793; first compound 0.8 µM) was 0.916. The relative viability (NCI-H1793; first compound 2.53 µM) was 0.646, the relative viability (PC-14; first compound 0.08 µM) was 0.305 and the relative viability (PC-14; first compound 0.253 µM) was 0.208. It also gave a relative viability (PC-14; first compound 0.8 µM) of 0.313, a relative viability (PC-14; first compound 2.53 µM) of 0.248 and a relative viability (CAL-12T; first compound 0.08 µM) of 0.788. The relative viability (CAL-12T; first compound 0.253 µM) was 0.699, the relative viability (CAL-12T; first compound 0.8 µM) was 0.689 and the relative viability (CAL-12T; first compound 2.53 µM) was 0.654. It also gave a relative viability (NCI-H522; first compound 0.08 µM) of 0.887, a relative viability (NCI-H522; first compound 0.253 µM) of 0.649 and a relative viability (NCI-H522; first compound 0.8 µM) of 0.63. For the same compound, the relative viability (NCI-H522; first compound 2.53 µM) was 0.689, the relative viability (UMC-11; first compound 0.08 µM) was 0.488 and the relative viability (UMC-11; first compound 0.253 µM) was 0.327. For the same compound, the relative viability (UMC-11; first compound 0.8 µM) was 0.327, the relative viability (UMC-11; first compound 2.53 µM) was 0.274 and the relative viability (NCI-H2023; first compound 0.08 µM) was 0.531. The relative viability (NCI-H2023; first compound 0.253 µM) was 0.38, the relative viability (NCI-H2023; first compound 0.8 µM) was 0.463 and the relative viability (NCI-H2023; first compound 2.53 µM) was 0.402. For the same compound, the relative viability (A-427; first compound 0.08 µM) was 0.785, the relative viability (A-427; first compound 0.253 µM) was 0.584 and the relative viability (A-427; first compound 0.8 µM) was 0.706. It also gave a relative viability (A-427; first compound 2.53 µM) of 0.663, a relative viability (ABC-1; first compound 0.253 µM) of 0.792 and a relative viability (ABC-1; first compound 0.8 µM) of 1.25. The relative viability (ABC-1; first compound 2.53 µM) was 0.61, the relative viability (NCI-H838; first compound 0.08 µM) was 0.755 and the relative viability (NCI-H838; first compound 0.253 µM) was 0.662. It also gave a relative viability (NCI-H838; first compound 0.8 µM) of 0.597 and a relative viability (NCI-H838; first compound 2.53 µM) of 0.398.
